12 compounds from patent US20100298300A1, “TRIAZOLOPYRAZINE COMPOUNDS USEFUL FOR THE TREATMENT OF DEGENERATIVE & INFLAMMATORY DISEASES” (priority 2006, published 2010) can be followed below.

Assay [1] has as its system TNFα release by human PBMCs. In words: Cytokine release by LPS stimulated human PBMCs (TNFα ELISA). It is filed as cell-based. The settings on record: PBMC, 24 h, Table 5, LPS 1 μg/mL.
In assay [2] the test system is MMP1 expression by activated primary synovial fibroblasts. In words: 'MMP assay': MMP1 expression by complex trigger activated synovial fibroblasts (MMP1 ELISA). It is filed as cell-based. The settings on record: Homo sapiens, Fibroblast; Table 3; RASFs, complex trigger, 48 hrs, MMP1 ELISA. (ELISA stands for enzyme-linked immunosorbent assay.)
In assay [3] the target is T1, MAPKAPK5 (Homo sapiens, UniProt Q8IW41).
T1 sequence (Q8IW41 1-471 isoform Q8IW41-2): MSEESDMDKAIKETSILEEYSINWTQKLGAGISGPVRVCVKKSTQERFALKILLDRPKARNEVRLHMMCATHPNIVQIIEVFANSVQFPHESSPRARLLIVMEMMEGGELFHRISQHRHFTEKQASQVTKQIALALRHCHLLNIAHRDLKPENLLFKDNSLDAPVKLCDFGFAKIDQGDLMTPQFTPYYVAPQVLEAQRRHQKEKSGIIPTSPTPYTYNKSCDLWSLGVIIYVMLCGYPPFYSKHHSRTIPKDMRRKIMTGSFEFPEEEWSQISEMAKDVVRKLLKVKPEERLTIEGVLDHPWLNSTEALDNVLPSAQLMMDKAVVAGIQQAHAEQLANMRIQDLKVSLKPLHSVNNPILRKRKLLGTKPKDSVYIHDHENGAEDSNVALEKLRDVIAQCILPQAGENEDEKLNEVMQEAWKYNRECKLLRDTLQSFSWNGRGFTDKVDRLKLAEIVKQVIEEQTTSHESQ
In words: MAPKAP-K5 assay (FlashPlate kinase assay).

The term EC50 denotes the concentration needed to bring the measured effect to its halfway point. Higher therefore signals weaker potency. Broadly, the IC50 is the concentration needed to halve the response being measured. A high value points to a need for much substance.

Each structure is given as a SMILES string. Some results are limits rather than exact numbers.

With `c1nc2c(Nc3ccc(N4CCN(CC5CC5)CC4)nc3)ncc(-c3cn[nH]c3)n2n1` [Compound 42, [6-(4-[Cyclopropylmethyl]piperazin-1-yl)pyridin-3-yl]-[5-(1H-pyrazol-4-yl)-[1,2,4]triazolo[1,5-a]pyrazin-8-yl]amine], the concentration giving a half-maximal response (EC50) in assay [1] and in assay [2] was above 1000 nM each time. Further, the half-inhibitory concentration (IC50) in assay [3] was above 1000 nM.
As for `Cc1[nH]ncc1-c1cnc(Nc2ccc(N3CCOCC3)cc2)c2ncnn12` [Compound 12, 5-(5-Methyl-1H-pyrazol-4-yl)-N-(4-morpholinophenyl)-[1,2,4]triazolo[1,5-a]pyrazin-8-amine], the EC50 in assay [1] was above 1000 nM; in assay [2], 501 to 1000 nM. This compound also displayed an IC50 in assay [3] of 501 to 1000 nM.
In the case of `NC(=O)c1ccc(-c2cnc(Nc3ccc(N4CCOCC4)cc3)c3ncnn23)s1` [Compound 13], the EC50 in assay [1] was above 1000 nM; in assay [2] it was 101 to 500 nM. In addition, in assay [3], the IC50 is above 1000 nM.
For `c1nc2c(Nc3ccc(N4CCOCC4)cc3)ncc(-c3ccc4[nH]ncc4c3)n2n1` [Compound 104], the EC50 in assay [1] and in assay [2] was above 1000 nM throughout. Besides, in assay [3], the IC50 is above 1000 nM.
`O=C1NCc2cc(-c3cnc(Nc4cnc(N5CCOCC5)nc4)c4ncnn34)ccc21` [Compound 99]: the EC50 in assay [1] is 501 to 1000 nM; in assay [2], above 1000 nM. For the same compound, the concentration for half-maximal inhibition (IC50) in assay [3] lay within 101 to 500 nM.
Consider `FC(F)(F)CN1CCN(c2ccc(Nc3ncc(-c4cn[nH]c4)n4ncnc34)cc2)CC1` [Compound 45], for which the EC50 in assay [1] and in assay [2] was above 1000 nM each time. Further, in assay [3], the IC50 was above 1000 nM.
For `CC(C)N1CCN(c2ccc(Nc3ncc(-c4cc(F)c5c(c4)CNC5=O)n4ncnc34)cc2)CC1` [Compound 108, 7-Fluoro-5-{8-[4-(4-isopropylpiperazin-1-yl)-phenylamino]-[1,2,4]triazolo[1,5-a]pyrazin-5-yl}-2,3-dihydroisoindol-1-one], the EC50 in assay [1] and in assay [2] was above 1000 nM in each case. In assay [3], this compound had an IC50 of 1 to 100 nM.
`O=C1NCc2cc(-c3cnc(NC4CCCCC4)c4ncnn34)ccc21` [Compound 115]: the 50% effective concentration (EC50) in assay [1] and in assay [2] was above 1000 nM in each case. Besides, in assay [3], the IC50 fell in the range of 101 to 500 nM.
For `CC(C)N1CCN(c2ccc(Nc3ncc(-c4cc(F)c(C(N)=O)c(F)c4)n4ncnc34)cc2)CC1` [Compound 26], the EC50 in assay [1] was 501 to 1000 nM; in assay [2], above 1000 nM. The IC50 in assay [3] was above 1000 nM.
For `c1ccc2c(-c3cnc(Nc4ccc(N5CCOCC5)cc4)c4ncnn34)csc2c1` [Compound 48, (5-Benzo[b]thiophen-3-yl-[1,2,4]triazolo[1,5-a]pyrazin-8-yl)-(4-morpholin-4-ylphenyl)amine], the figures for the EC50 in assay [1] and in assay [2] were above 1000 nM and 101 to 500 nM, respectively. The same compound came in with an IC50 in assay [3] above 1000 nM.
On to `NC(=O)c1cc(-c2cnc(Nc3ccc(N4CCOCC4)nc3)c3ncnn23)cs1` [Compound 47, 4-[8-(6-[Morpholin-4-yl]pyridin-3-ylamino)-[1,2,4]triazolo[1,5-a]pyrazin-5-yl]thiophene-2-carboxylic acid amide], for which the figures for the EC50 in assay [1] and in assay [2] were above 1000 nM and 501 to 1000 nM, respectively. This compound also showed an IC50 in assay [3] of 101 to 500 nM.
`Nc1nc(-c2ccc(-c3cnc(Nc4ccc(N5CCOCC5)cc4)c4ncnn34)cc2)cs1` [Compound 85]: the EC50 in assay [1] and in assay [2] was above 1000 nM each time. In assay [3], this compound returned an IC50 above 1000 nM.
